Source: patent US10604529B2, “Fused imidazole compound having indoleamine 2,3-dioxygenase inhibitory activity” (SHENZHEN CHIPSCREEN BIOSCIENCES CO., LTD., priority 2016, dated 2020)

Tests used:
[1] = molecular target: T1, Recombinant human IDO enzyme (IDO1 enzyme) (Homo sapiens, UniProt P14902); assay: In vitro IDO enzymatic activity assay (kynurenine colour reaction, 492 nm); type: biochemical; settings: for IC50: recombinant human IDO enzyme; for inhibition at 0.2 µM: tested compound concentration 200 nM, recombinant human IDO1, read-out: IDO Enzymatic Inhibition Rate (%) (200 nM)
T1 construct: purchased BPS Bioscience, USA
T1 sequence (P14902 whole entry): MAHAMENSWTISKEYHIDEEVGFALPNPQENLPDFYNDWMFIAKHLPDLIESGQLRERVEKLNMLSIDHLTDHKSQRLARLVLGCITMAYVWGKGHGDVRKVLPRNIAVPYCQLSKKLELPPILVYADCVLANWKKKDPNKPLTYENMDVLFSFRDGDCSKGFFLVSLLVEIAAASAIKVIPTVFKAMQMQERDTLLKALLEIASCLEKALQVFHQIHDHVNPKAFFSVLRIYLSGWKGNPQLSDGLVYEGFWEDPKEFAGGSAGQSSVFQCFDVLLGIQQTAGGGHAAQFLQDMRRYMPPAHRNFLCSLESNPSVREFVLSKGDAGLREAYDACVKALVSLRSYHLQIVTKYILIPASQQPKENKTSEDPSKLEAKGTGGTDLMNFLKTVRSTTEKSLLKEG
Procedure: The basic principle of the in vitro IDO enzymatic activity detection is to use the IDO enzyme to metabolize the substrate L-tryptophan to produce the product kynurenine in an in vitro enzyme-catalyzed reaction system. The kynurenine is yellow in color reaction with p-dimethylaminobenzaldehyde in glacial acetic acid, and the absorbance value was measured at 492 nm on a microplate reader. The concentration of the product kynurenine in the sample is calculated by comparison to a standard curve of kynurenine with a known concentration.
Recombinant human IDO enzyme (IDO1 enzyme) was purchased from BPS Bioscience, USA.
(3) Control reactions were set up at the same time the detection reaction was carried out. including 0 inhibition positive control with no tested compound added and 0 enzyme negative control with no enzyme added. All tests were run in duplicate.
(4) After the enzymatic reaction was completed, 40 μl of a pre-formulated 30% (w/v) trichloroacetic acid solution was added, and reacted at 65° C. for 20 minutes, followed by centrifugation at 12,000 rpm for 15 minutes.
(5) 100 μl of the supernatant after centrifugation was pipetted and added to a 96-well plate. An equal volume of 2% p-dimethylaminobenzaldehyde in glacial acetic acid was added, well mixed, and allowed to stand at room temperature for 10 minutes.
(6) A microplate reader (ELX800NB) was used to detect the color signal of each well with a detection wavelength of 492 nm.
In addition, the enzymatic inhibition rates were calculated for the tested compounds of different concentration gradients, and then the enzymatic half maximal inhibitory concentration (IC50) was calculated using the IC50 calculator.
According to the above-mentioned method of experiment, the compound of the present disclosure was subjected to an in vitro IDO enzymatic IC50 assay using NLG919 as a positive control compound.

[2] = molecular target: T2, IFN-γ-induced IDO enzyme in HeLa cells (Homo sapiens, UniProt P14902); assay: Detection of IDO inhibitory activity at the cellular level (IFN-γ-induced HeLa cells); type: cell-based; settings: 48 hours; for EC50: human IFN-γ induced, read-out: IDO EC50 (nM) at the Cellular Level (column head: IC50 (nM)); for inhibition at 1 µM: tested compound 1 μM, human IFN-γ 50 ng/ml, read-out: IDO Inhibitory Rate (%) (1 μM)
T2 construct: HeLa cells are human cervical cancer cell lines and can up-regulate the expression of endogenous IDO enzymes; endogenous in cells; host or cells: HeLa cells stimulated with human IFN-γ
T2 sequence (P14902 whole entry): as above
Excerpt: In the present disclosure, IFN-γ-induced IDO enzyme expression in HeLa cells were used as a model to detect the IDO enzymatic inhibitory activity of the compound at the cellular level. HeLa cells are human cervical cancer cell lines and can up-regulate the expression of endogenous IDO enzymes under the induction of human IFN-γ. The cell supernatant can be subjected to detection of the enzyme-catalyzed product kynurenine by adding the substrate L-tryptophan to the cell culture solution. […] Recombinant human IFN-γ cytokine purchased from Sangon Biotech, Phenol red-free DMEM for cell culture purchased from Gibco. […] The cells were further cultured for 48 hours and detected. (2) 200 μl of the supernatant from the culture well was pipetted, 40 μl of a pre-formulated 30% (w/v) trichloroacetic acid solution was added, allowed to react at 65° C. for 20 minutes, and then centrifuged at 12,000 rpm for 15 minutes. (3) 100 μl of the supernatant after centrifugation was pipetted and added into a 96-well plate, an equal volume of 2% p-dimethylaminobenzaldehyde in glacial acetic acid was added, and they were mixed well and allowed to stand at room temperature for 10 minutes. (4) A microplate reader (ELX800NB) was used to detect the color signal of each well, and the detection wavelength was 492 nm.

| Compound | IC50 [1] | inhibition at 0.2 µM [1] | EC50 [2] | inhibition at 1 µM [2] |
| --- | --- | --- | --- | --- |
| O=C(COc1ccccc1)N1CCC(C(O)CC2c3ccccc3-c3cncn32)CC1 (centres unmarked) [Example 7, 1-(4-(1-hydroxy-2-(5H-imidazo[5,1-a]isoindol-5-yl)ethyl)piperidin-1-yl)-2-phenoxyethyl-1-one] | 55 nM | 85% | 154 nM | 93% |
| O=C(COc1ccc2[nH]c3ccccc3c2c1)N1CCC(C(O)CC2c3ccccc3-c3cncn32)CC1 (centres unmarked) [Example 17, 2-((9H-carbazol-3-yl)oxy)-1-(4-(1-hydroxy-2-(5H-imidazo[5,1-a]isoindol-5-yl)ethyl)piperidin-1-yl)ethyl-1-one] | – | 85% | – | 93% |
| O=C(COc1ccc2ncccc2c1)N1CCC(C(O)CC2c3ccccc3-c3cncn32)CC1 (centres unmarked) [Example 23, 1-(4-(1-hydroxy-2-(5H-imidazo[5,1-a]isoindol-5-yl)ethyl)piperidin-1-yl)-2-(quinolin-6-yloxy)ethyl-1-one] | – | 80% | – | 77% |
| O=C(COc1ccc2[nH]ccc2c1)N1CCC(C(O)CC2c3ccccc3-c3cncn32)CC1 (centres unmarked) [Example 26, 2-((1H-indol-5-yl)oxy)-1-(4-(1-hydroxy-2-(5H-imidazo[5,1-a]isoindol-5-yl)ethyl)piperidin-1-yl)-ethyl-1-one] | – | 89% | – | 92% |
| O=C(COc1ncnc2[nH]cnc12)N1CCC(C(O)CC2c3ccccc3-c3cncn32)CC1 (centres unmarked) [Example 33, 2-((7H-purin-6-yl)oxy)-1-(4-(1-hydroxy-2-(5H-imidazo[5,1-a]isoindol-5-yl)ethyl)piperidin-1-yl)ethyl-1-one] | – | 70% | – | – |
| O=C(COc1nc2ccccc2o1)N1CCC(C(O)CC2c3ccccc3-c3cncn32)CC1 (centres unmarked) [Example 37, 2-(benzo[d]oxazolin-2-yloxy)-1-(4-(1-hydroxy-2-(5H-imidazo[5,1-a]isoindol-5-yl)ethyl)piperidin-1-yl)ethyl-1-one] | – | 83% | – | 97% |
| O=C(COc1ccc(F)c(Cl)c1)N1CCC(C(O)CC2c3ccccc3-c3cncn32)CC1 (centres unmarked) [Example 39, 2-(3-chloro-4-fluorophenoxy)-1-(4-(1-hydroxy-2-(5H-imidazo[5,1-a]isoindol-5-yl)ethyl)piperidin-1-yl)ethyl-1-one] | – | 90% | – | 98% |
| O=C(COc1cccc(Cl)c1)N1CCC(C(O)CC2c3ccccc3-c3cncn32)CC1 (centres unmarked) [Example 41, 2-(3-chlorophenoxy)-1-(4-(1-hydroxy-2-(5H-imidazo[5,1-a]isoindol-5-yl)ethyl)piperidin-1-yl)ethyl-1-one] | – | 92% | – | 99% |
| O=C(COc1ccc(F)cc1)N1CCC(C(O)CC2c3ccccc3-c3cncn32)CC1 (centres unmarked) [Example 43, 2-(4-fluorophenoxy)-1-(4-(1-hydroxy-2-(5H-imidazo[5,1-a]isoindol-5-yl)ethyl)piperidin-1-yl)ethyl-1-one] | – | 83% | – | 89% |
| Cc1ccc(OCC(=O)N2CCC(C(O)CC3c4ccccc4-c4cncn43)CC2)cc1C (centres unmarked) [Example 46, 2-(3,4-dimethylphenoxy)-1-(4-(1-hydroxy-2-(5H-imidazo[5,1-a]isoindol-5-yl)ethyl)piperidin-1-yl)ethyl-1-one] | – | 83% | – | 93% |

The next lines start with the values.

| IC50 [1] | inhibition at 0.2 µM [1] | EC50 [2] | inhibition at 1 µM [2] | Compound |
| --- | --- | --- | --- | --- |
| – | 89% | – | 99% | O=C(COc1cccc(C(F)(F)F)c1)N1CCC(C(O)CC2c3ccccc3-c3cncn32)CC1 (centres unmarked) [Example 48, 2-(3-trifluoromethylphenoxy)-1-(4-(1-hydroxy-2-(5H-imidazo[5,1-a]isoindol-5-yl)ethyl)piperidin-1-yl)ethyl-1-one] |
| – | 66% | – | 69% | O=C(COC1CCCCC1)N1CCC(C(O)CC2c3ccccc3-c3cncn32)CC1 (centres unmarked) [Example 50, 2-(cyclohexyloxy)-1-(4-(1-hydroxy-2-(5H-imidazo[5,1-a]isoindol-5-yl)ethyl)piperidin-1-yl)ethyl-1-one] |
| – | 88% | – | 91% | O=C(COc1ccc2oc3ccccc3c2c1)N1CCC(C(O)CC2c3ccccc3-c3cncn32)CC1 (centres unmarked) [Example 57, 2-(dibenzo[b,d]furan-2-yloxy)-1-(4-(1-hydroxy-2-(5H-imidazo[5,1-a]isoindol-5-yl)ethyl)piperidin-1-yl)ethyl-1-one] |
| 159 nM | 83% | 169 nM | 92% | CN(CC(=O)N1CCC(C(O)CC2c3ccccc3-c3cncn32)CC1)c1ccccc1 (centres unmarked) [Example 59, 1-(4-(1-hydroxy-2-(5H-imidazo[5,1-a]isoindol-5-yl)ethyl)piperidin-1-yl)-2-(methyl(phenyl)amino)ethyl-1-one] |
| – | 90% | – | 99% | CN(CC(=O)N1CCC(C(O)CC2c3ccccc3-c3cncn32)CC1)c1cccc(Cl)c1 (centres unmarked) [Example 63] |
| – | 87% | – | 98% | CN(CC(=O)N1CCC(C(O)CC2c3ccccc3-c3cncn32)CC1)c1ccc(F)c(Cl)c1 (centres unmarked) [Example 68, 2-((3-chloro-4-fluorophenyl)(methyl)amino)-1-(4-(1-hydroxy-2-(5H-imidazo[5,1-a]isoindol-5-yl)ethyl)piperidin-1-yl)ethyl-1-one] |
| – | 73% | – | 91% | CN(CC(=O)N1CCC(C(O)CC2c3ccccc3-c3cncn32)CC1)c1ccc(F)cc1 (centres unmarked) [Example 72, 2-((4-fluorophenyl)(methyl)amino)-1-(4-(1-hydroxy-2-(5H-imidazo[5,1-a]isoindol-5-yl)ethyl)piperidin-1-yl)ethyl-1-one] |
| – | 82% | – | 95% | Cc1ccc(N(C)CC(=O)N2CCC(C(O)CC3c4ccccc4-c4cncn43)CC2)cc1C (centres unmarked) [Example 77, 2-((3,4-dimethylphenyl)(methyl)amino)-1-(4-(1-hydroxy-2-(5H-imidazo[5,1-a]isoindol-5-yl)ethyl)piperidin-1-yl)ethyl-1-one] |
| – | 85% | – | 94% | CCN(CC(=O)N1CCC(C(O)CC2c3ccccc3-c3cncn32)CC1)c1ccccc1 (centres unmarked) [Example 81, 2-(ethyl(phenyl)amino)-1-(4-(1-hydroxy-2-(5H-imidazo[5,1-a]isoindol-5-yl)ethyl)piperidin-1-yl)ethyl-1-one] |
| 144 nM | 65% | 312 nM | 84% | O=C(CNc1ccccc1)N1CCC(C(O)CC2c3ccccc3-c3cncn32)CC1 (centres unmarked) [Example 85, 1-(4-(1-hydroxy-2-(5H-imidazo[5,1-a]isoindol-5-yl)ethyl)piperidin-1-yl)-2-(phenylamino)ethyl-1-one] |
| – | – | – | 68% | CN(CC(=O)N1CCC(C(O)CC2c3ccccc3-c3cncn32)CC1)c1ccccn1 (centres unmarked) [Example 109, 1-(4-(1-hydroxy-2-(5H-imidazo[5,1-a]isoindol-5-yl)ethyl)piperidin-1-yl)-2-(methyl(pyridin-2-yl)amino)ethyl-1-one] |
| – | – | – | 79% | CN(CC(=O)N1CCC(C(O)CC2c3ccccc3-c3cncn32)CC1)c1ccc2c(c1)oc1ccccc12 (centres unmarked) [Example 124, 2-(dibenzo[b,d]furan-3-yl(methyl)amino)-1-(4-(1-hydroxy-2(5H-imidazo[5,1-a]isoindol-5-yl)ethyl)piperidin-1-yl)ethyl-1-one] |
